Where a name gives a salt, the structure may show the parent alone.
Legend:
[1] = Formulation flow properties; format: physicochemical
[2] = Excipient compatibility: potency and purity of binary volixibat:excipient formulations on storage (HPLC); format: physicochemical
Method: Binary formulations of volixibat potassium were prepared at either 1:1 or 10:1 ratio with the excipients outlined in Table 1.1. Powder grade excipients were utilized to maximize surface area interactions between excipient and drug substance.
Each formulation was prepared at 300 mg total sample size. Volixibat and each excipient was weighed into glass vials and mixed via vortex. A single vial of each formulation was stored loosely capped at two storage conditions: ambient/60% RH and 40° C./75% RH. Humidity control was obtained by using a saturated salt solution in a sealed container. […] A standard solution of volixibat DS prepared at nominal concentration in the analytical diluent served as the T=0 data point. The neat, loose drug substance powder was stored in the same vial configuration to serve as a control at each storage condition.
At the specified time points, approximately 50 mg of each formulation was sampled and diluted with analytical diluent in either 50 mL (for 1:1 formulations) or 100 mL (for […] and neat DS) to target nominal analytical concentration of 0.5 mg/mL volixibat. HPLC analysis was used based on the parameters described above under HPLC Parameters (Gradient Elution).

physchem = details: 25 °C, water

Structure (SMILES): CCCC[C@]1(CC)CS(=O)(=O)c2ccc(N(C)C)cc2[C@@H](c2cccc(NC(=O)N[C@@H]3O[C@H](COS(=O)(=O)[O-])[C@@H](O)[C@H](OCc4ccccc4)[C@H]3O)c2)[C@H]1O.[K+] [Volixibat DS]
- Bulk Density [1]: 0.54 g/mL
- Hausner Ratio [1]: 1.27
- Tapped Density [1]: 0.69 g/mL
- Potency, % LC Volixibat ([2]; stored at 40° C./75% RH, T = 2-weeks): 93.2 % LC
- Potency, % LC Volixibat ([2]; stored at 40° C./75% RH, T = 4 weeks): 105.1 % LC
- Potency, % LC Volixibat ([2]; stored at 40° C./75% RH, T = 8 weeks): 98.3 % LC
- Potency, % LC Volixibat ([2]; stored at RT/60% RH, T = 2-weeks): 100.9 % LC
- Potency, % LC Volixibat ([2]; stored at RT/60% RH, T = 4 weeks): 107.7 % LC
- Potency, % LC Volixibat ([2]; stored at RT/60% RH, T = 9 weeks): 97.1 % LC

Structure (SMILES): CCCC[C@]1(CC)CS(=O)(=O)c2ccc(N(C)C)cc2[C@@H](c2cccc(NC(=O)N[C@@H]3O[C@H](COS(=O)(=O)O)[C@@H](O)[C@H](OCc4ccccc4)[C@H]3O)c2)[C@H]1O [volixibat, ((2R,3R,4S,5R,6R)-4-benzyloxy-6-{3-[3-((3S,4R,5R)-3-butyl-7-dimethylamino-3-ethyl-4-hydroxy-1,1-dioxo-2,3,4,5-tetrahydro-1H-benzo[b]thiepin-5-yl)-phenyl]-ureido}-3,5-dihydroxy-tetrahydro-pyran-2-ylmethyl) hydrogen sulfate)]
- solubility (physchem): > 200 mg/mL
